Experimental data reported in patent publication US20190133128A1, “Fungicidal pyridazinones” (FMC Corporation, priority 2017, published 2019).

Key:
Assay type in all cases: in vivo
[1] = system: Phakopsora pachyrhizi; assay: Test A: preventive spray on soybean seedlings, Asian soybean rust, visual disease rating; settings: 250 ppm, 100 = 100% disease control, 0 = no control
[2] = system: Plasmopara viticola; assay: Test B: preventive spray on grape seedlings, grape downy mildew, disease rating
Excerpt: General protocol for preparing test solutions for Tests AG: the test compounds were first dissolved in acetone in an amount equal to 3% of the final volume and then suspended at the desired concentration (in ppm) in acetone and purified water (50/50 mix by volume) containing the surfactant PEG400 (polyhydric alcohol esters). The resulting test suspensions were then used in Tests AG. Compounds were sprayed at a concentration of 250 ppm or other indicated rate to the point of run-off on the test plants. The test solution was sprayed to the point of run-off on grape seedlings. […] A dash (-) indicates no test results.

[3] = system: Botrytis cinerea; assay: Test C: preventive spray on tomato seedlings, gray mold, visual disease rating; settings: for pest or weed control at 250 ppm: Botrytis cinerea
Procedure, shortened: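 Tomato seedlings received a run-off spray, typically 250 ppm (or stated rate), ahead of gray mold inoculation and visual scoring. Test suspensions: acetone stock (3% of volume) diluted into 1:1 acetone/water containing PEG400.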

[4] = system: Phytophthora infestans; assay: whole plant or invertebrate; settings: for Test D disease control rating: tomato seedlings; for pest or weed control at 250 ppm: Phytophthora infestans, in Solanum lycopersicum, read-out: Test D disease control rating
[5] = system: Puccinia recondita f. sp. tritici; assay: Test F: preventive spray on wheat seedlings, wheat leaf rust, visual disease rating; settings: for pest or weed control at 250 ppm: Puccinia recondita
Procedure, shortened: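 Preventive test: wheat seedlings were sprayed to run-off with compound suspended in acetone/water 50/50 plus PEG400 (250 ppm or other indicated rate). One day later they received Puccinia recondita f. sp. tritici spores, and disease was scored visually.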

[6] = system: Erysiphe graminis f. sp. tritici; assay: Test G: preventive spray on wheat seedlings, wheat powdery mildew, visual disease rating; settings: for pest or weed control at 250 ppm: Blumeria graminis, 192 h
Procedure, shortened: (§1)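 Preventive foliar spray of wheat seedlings to run-off, at 250 ppm or other indicated rate. Compounds dissolved in acetone (3% of final volume), suspended in 50/50 acetone–water with PEG400 surfactant. Disease rated visually.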

[7] = system: Zymoseptoria tritici; assay: Test E: preventive spray on wheat seedlings, wheat leaf blotch, visual disease rating; settings: for pest or weed control at 250 ppm: Zymoseptoria tritici
Procedure, shortened: as §1

[8] = 250 ppm, 100 = 100% disease control, 0 = no control

Row | Molecule | Test B disease control rating [2, 8] [%] | Test C disease control rating [3, 8] [%] | Test D disease control rating [4, 8] [%] | Test F disease control rating [5, 8] [%] | Test G disease control rating [6, 8] [%] | Test E disease control rating [7, 8] [%] | also measured
1 | CN(C)c1cnn(C)c(=O)c1C(=O)Nc1ccc(C(F)(F)F)cc1F [Compound 128] | 100 | 0 | 67 | 68 | 0 |  | Test A disease control rating [1]: 79%
2 | O=C(Nc1ccc(OC(F)(F)F)cc1)c1c(O)cn[nH]c1=O [Compound 136] | 100 | 0 | 91 | 93 | 0 |  | Test A disease control rating [1]: 0%
3 | Cc1ccc(NC(=O)c2c(O)cnn(C)c2=O)cc1 [Compound 93] | 94 | 15 | 93 | 91 | 87 | 65 | 
4 | O=C(Nc1ccc(OC(F)(F)F)cc1)c1c(O)cnn(C2CC2)c1=O [Compound 120] | 98 | 0 | 97 | 96 | 89 |  | Test A disease control rating [1]: 13%
5 | Cc1nnc(NC(=O)c2c(O)cnn(C)c2=O)s1 [Compound 13] | 65 | 0 | 0 | 0 | 0 | 0 | 
6 | Cn1ncc(O)c(C(=O)Nc2ccc(S(=O)(=O)C(F)(F)F)cc2)c1=O [Compound 129] | 98 | 0 | 82 | 89 | 81 |  | Test A disease control rating [1]: 0%
7 | Cn1ncc(O)c(C(=O)Nc2ccc(OC(F)(F)F)cc2)c1=O [Compound 21, 2,3-Dihydro-5-hydroxy-2-methyl-3-oxo-N-[4-(trifluoromethoxy)phenyl]-4-pyridazinecarboxamide] | 93 |  |  |  |  |  | pest or weed control at 250 ppm [3, 8]: 0%; pest or weed control at 250 ppm [4]: 97%; pest or weed control at 250 ppm [7, 8]: 98%; pest or weed control at 250 ppm [5, 8]: 99%; pest or weed control at 250 ppm [6, 8]: 98%
8 | Cn1ncc(O)c(C(=O)Nc2ccc(Cl)cc2Cl)c1=O [Compound 37] | 86 | 0 | 95 | 94 | 76 | 51 | 
9 | Cc1cc(C(F)(F)F)ccc1NC(=O)c1c(O)cnn(C)c1=O [Compound 117] | 100 | 0 | 97 | 99 | 90 |  | Test A disease control rating [1]: 0%
10 | CC(C)n1ncc(O)c(C(=O)Nc2ccc(OC(F)(F)F)cc2)c1=O [Compound 131] | 98 | 0 | 99 | 91 | 100 | 51 | 
11 | Cn1ncc2oc(=O)n(-c3ccc(OC(F)(F)F)cc3)c(=O)c2c1=O [Compound 89, 6-Methyl-3-[4-(trifluoromethoxy)phenyl]-2H-pyridazino[4,5-e]-1,3-oxazine-2,4,5(3H,6H)-trione] | 99 |  |  |  |  |  | pest or weed control at 250 ppm [3, 8]: 0%; pest or weed control at 250 ppm [4]: 67%; pest or weed control at 250 ppm [7, 8]: 97%; pest or weed control at 250 ppm [5, 8]: 99%; pest or weed control at 250 ppm [6, 8]: 61%
12 | Cn1ncc(O)c(C(=O)Nc2c(Cl)cc(OC(F)(F)F)cc2Cl)c1=O [Compound 133] | 100 | 0 | 89 | 86 | 100 | 100 | 
13 | Cn1ncc(O)c(C(=O)Nc2c(Cl)cccc2Cl)c1=O [Compound 141] | 96 | 0 |  | 68 | 64 |  | Test A disease control rating [1]: 50%
14 | COC(=O)N(C(=O)c1c(OC(C)=O)cnn(C)c1=O)c1ccc(OC(F)(F)F)cc1 [Compound 88] |  |  |  |  |  |  | Test B disease control rating ([2]; 50 ppm): 91%; Test C disease control rating ([3]; 50 ppm): 0%; Test D disease control rating ([4]; 50 ppm): 57%; Test E disease control rating ([7]; 50 ppm): 32%; Test F disease control rating ([5]; 50 ppm): 83%; Test G disease control rating ([6]; 50 ppm): 89%
15 | Cn1ncc(O)c(C(=O)Nc2ccc(C(F)(F)C(F)(F)F)cc2)c1=O [Compound 138] | 100 | 0 | 99 | 100 | 99 | 99 | 
16 | COc1ccc(NC(=O)c2c(O)cnn(C)c2=O)cc1 [Compound 92] | 92 | 99 | 68 | 89 | 35 | 59 | 
17 | N-(4-Bromophenyl)-2,3-dihydro-5-hydroxy-2-methyl-3-oxo-4-pyridazinecarboxamide [Compound 75] | 86 | 0 | 93 | 98 | 13 | 83 | 
18 | Cn1nc(-c2ccccc2)c(O)c(C(=O)Nc2ccccc2C(F)(F)F)c1=O [Compound 26] | 49 | 0 | 58 | 68 | 84 | 0 | 
19 | Cn1ncc(O)c(C(=O)Nc2ccc(Cl)nc2)c1=O [Compound 6] | 85 | 99 | 88 | 99 | 0 | 57 | 
20 | Cn1ncc(O)c(C(=O)NC2CCCCC2)c1=O [Compound 39] | 70 | 0 | 0 | 0 | 69 | 0 | 
21 | Cn1ncc(O)c(C(=O)Nc2ccc(C(F)(F)F)cc2)c1=O [Compound 2, 2,3-Dihydro-5-hydroxy-2-methyl-3-oxo-N-[4-(trifluoromethyl)phenyl]-4-pyridazinecarboxamide] | 97 |  |  |  |  |  | pest or weed control at 250 ppm [3, 8]: 0%; pest or weed control at 250 ppm [4]: 99%; pest or weed control at 250 ppm [7, 8]: 97%; pest or weed control at 250 ppm [5, 8]: 100%; pest or weed control at 250 ppm [6, 8]: 97%
